Data: PMC9645260, “Small-molecule inhibitors of P-Rex guanine-nucleotide exchange factors” (Small GTPases, 2022)

Columns and labels:
full-length P-Rex1 = biological target: T1, full-length P-Rex1 (Homo sapiens, UniProt Q8TCU6); experiment: Liposome-based GEF activity assay, PIP3-stimulated full-length P-Rex1; type: biochemical; settings: 200 µM, pilot experiments, EE-Rac2 substrate
T1 construct: Full-length N-terminally EE-tagged P-Rex1, P-Rex2, the P-Rex1 DH and DHPH domains and the P-Rex2 DH domain were produced in Sf9 cells; made in house; host or cells: Sf9 cells (baculovirus)
T1 sequence (Q8TCU6 whole entry, the tested form may be a part): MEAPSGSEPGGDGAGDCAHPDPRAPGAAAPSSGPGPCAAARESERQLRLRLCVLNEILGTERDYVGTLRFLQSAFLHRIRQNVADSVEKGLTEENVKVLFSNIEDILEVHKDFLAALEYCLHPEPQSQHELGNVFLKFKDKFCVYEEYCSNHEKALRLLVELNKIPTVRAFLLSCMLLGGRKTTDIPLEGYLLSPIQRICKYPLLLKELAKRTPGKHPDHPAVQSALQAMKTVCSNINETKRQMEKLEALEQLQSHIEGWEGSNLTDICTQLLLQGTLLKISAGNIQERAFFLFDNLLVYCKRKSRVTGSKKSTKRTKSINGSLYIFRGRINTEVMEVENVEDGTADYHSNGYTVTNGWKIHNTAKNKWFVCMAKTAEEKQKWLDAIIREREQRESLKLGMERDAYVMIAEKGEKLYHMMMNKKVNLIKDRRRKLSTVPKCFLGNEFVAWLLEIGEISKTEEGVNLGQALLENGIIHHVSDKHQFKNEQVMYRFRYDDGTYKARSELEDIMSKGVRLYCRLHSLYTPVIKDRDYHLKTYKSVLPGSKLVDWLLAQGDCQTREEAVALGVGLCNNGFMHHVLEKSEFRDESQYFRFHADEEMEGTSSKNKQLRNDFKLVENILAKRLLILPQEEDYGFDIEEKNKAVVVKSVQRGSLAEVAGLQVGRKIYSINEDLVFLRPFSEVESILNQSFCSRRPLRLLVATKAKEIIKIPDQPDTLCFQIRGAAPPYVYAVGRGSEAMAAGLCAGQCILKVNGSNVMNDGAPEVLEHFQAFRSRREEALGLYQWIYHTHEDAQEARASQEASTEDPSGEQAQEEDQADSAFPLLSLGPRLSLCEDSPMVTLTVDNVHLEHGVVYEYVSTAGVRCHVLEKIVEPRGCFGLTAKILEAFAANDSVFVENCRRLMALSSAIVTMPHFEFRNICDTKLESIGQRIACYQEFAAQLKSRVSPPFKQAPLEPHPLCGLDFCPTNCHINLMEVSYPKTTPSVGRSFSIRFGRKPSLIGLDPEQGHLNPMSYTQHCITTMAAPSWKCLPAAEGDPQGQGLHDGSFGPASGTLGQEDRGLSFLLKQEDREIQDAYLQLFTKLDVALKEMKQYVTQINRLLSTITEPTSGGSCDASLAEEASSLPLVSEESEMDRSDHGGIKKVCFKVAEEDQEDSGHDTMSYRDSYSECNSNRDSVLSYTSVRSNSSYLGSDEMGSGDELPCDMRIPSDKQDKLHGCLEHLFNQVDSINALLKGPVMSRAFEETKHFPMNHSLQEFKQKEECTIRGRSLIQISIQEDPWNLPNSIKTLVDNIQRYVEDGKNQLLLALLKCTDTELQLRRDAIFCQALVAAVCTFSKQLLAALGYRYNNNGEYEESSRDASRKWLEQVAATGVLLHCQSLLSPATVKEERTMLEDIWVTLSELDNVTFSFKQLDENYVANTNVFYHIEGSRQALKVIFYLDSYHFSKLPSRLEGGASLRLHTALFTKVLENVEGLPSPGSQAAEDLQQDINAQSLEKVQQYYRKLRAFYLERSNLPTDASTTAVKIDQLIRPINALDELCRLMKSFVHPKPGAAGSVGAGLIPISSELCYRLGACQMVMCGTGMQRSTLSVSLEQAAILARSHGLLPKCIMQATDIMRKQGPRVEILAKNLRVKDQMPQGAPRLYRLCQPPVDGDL
Source text: All small GTPases and GEFs used were human recombinant proteins. EE-Rac1, EE-Rac2, GST-Cdc42 or GST-RhoA were expressed in Sf9 cells by baculoviral transduction and purified using their epitope tag in their post-translationally prenylated form using Triton X-114 phase separation, essentially as previously described. Briefly, frozen pellets from a 1 litre culture of Sf9 cells transduced with high-titre baculovirus expressing the small GTPase were resuspended in ice-cold Sf9-cell lysis buffer 1 (1x PBS, 40 mM HEPES pH 7.5 at RT, 5 mM MgCl2, 10 mM EGTA, 300 µM GDP, 1 mM DTT, 200 µM PMSF, 20 μg/ml each of leupeptin, pepstatin A, aprotinin and antipain) and lysed by sonication. Triton X-114 was added (to 1% final concentration), and samples were ultracentrifuged at 118,000 × g for 50 min at 4°C. The supernatant was warmed at 37°C until cloudy (30–60 seconds) and centrifuged at 1300 × g for 2 min at 37°C. The upper phase containing non-lipid modified GTPase was discarded and replaced with ice-cold Sf9-cell lysis buffer. The warming/centrifugation steps were repeated twice and lipid-modified GTPase resuspended in ice-cold Sf9-cell lysis buffer 1 supplemented with Triton X-100 (1% final concentration), followed by ultracentrifugation at 118,000 × g for 50 min at 4°C. For EE-tagged GTPases, supernatants were incubated with anti-EE antibody covalently coupled to protein G-Sepharose beads (anti-EE beads, Onyx Pharmaceuticals) and incubated with end-over-end rotation for 90 min on ice. Beads were washed 3 times in wash buffer (PBS, 5 mM MgCl2, 1 mM DTT, 10 μM GDP, 1 mM EGTA, 0.2% Triton X-100) and 5x in elution buffer (40 mM HEPES pH 7.5, 150 mM NaCl, 5 mM MgCl2, 1 mM EGTA, 1 mM DTT, 10 µM GDP). Protein was eluted by three incubations with elution buffer containing peptide Ac-EEYMPME (Activotec, Comberton, UK) and cholate (first 1%, then twice 0.5%) for 20 min on ice. For GST-tagged GTPases, supernatants were incubated with glutathione Sepharose beads and were eluted with glutathione in the same manner. Proteins were concentrated in a YM-10 Centricon (Millipore) at 5000 × g, 4°C. Protein concentration and purity was determined by coomassie staining of SDS-PAGE gels. For use in the mant-GTP assay, EE-Rac 1 was expressed in BL21 (DE3) bacteria (NEB, C25271), by induction with 0.5 mM IPTG overnight at 18°C. Bacterial pellets from 500 ml cultures were resuspended in 20 ml bacterial lysis buffer (40 mM Hepes, pH 7.5 at 4°C, 150 mM NaCl, 1% Triton X-100, 5 mM MgCl2, 1 mM DTT, 300 μM GDP, 200 µM PMSF, and 20 μg/ml each of leupeptin, pepstatin A, aprotinin and antipain) and were lysed by sonication. 5 μg/ml DNAse and 5 μg/ml RNAse were added and the lysate incubated on ice for 10 min. […]

Tiam1 = tested on: Tiam1; parameters: method as in PMID 15128949; settings: cited from earlier work
HEK-293 cells = experiment: Cell cycle stages by propidium iodide flow cytometry; type: cell-based; settings: 24 h treatment, 10 µM
Method: Human embryonic kidney 293 (HEK-293) cells were grown at 37°C in a humidified 5% CO2 atmosphere in Dulbecco’s modified Eagle medium (DMEM, Gibco) supplemented with 10% foetal bovine serum (FBS), 100 units/ml penicillin and 100 µg/ml streptomycin. Cells were passaged by tryptic digest 1:4 approximately every 2 days. To measure cell cycle stages, 2 ml HEK293 cells were plated per well of a 6-well dish (Thermo Scientific, Nunc) at 10^5 cells/ml. After 24 h, the medium was replaced with fresh medium containing various concentrations of PREX-in1, as indicated, or 10 μM NSC23766, or vehicle control (0.1% DMSO), and cells were incubated for a further 24 h. The medium was removed but kept aside to recover any detached cells. Wells were washed with PBS, and cells recovered by trypsinization. Cell suspensions were pooled with the culture supernatant and centrifuged at 433 × g for 5 min at RT. Cells were washed in PBS, resuspended in ice-cold 70% ethanol/PBS, and incubated for 30 min at 4°C for fixation and permeabilization. Cells were washed once more in PBS, then stained with 50 µg/ml propidium iodide in PBS containing 100 µg/ml RNase for 30 min at 37°C. Cells were analysed by flow cytometry for the intensity of propidium iodide staining using a FACSCalibur flow cytometer. 10,000 cells were analysed per sample. Data analysis was done using FloJo software.

TrioN = tested on: TrioN; parameters: method as in PMID 15128949; settings: cited from earlier work
DOCK2 = tested on: DOCK2; parameters: method as in PMID 22520755; settings: cited from earlier work
P-Rex1 DHPH domain = biological target: T2, P-Rex1 DHPH domain (Homo sapiens, UniProt Q8TCU6); experiment: Mant-GTP GEF activity assay; type: biochemical; settings: 10 µM
T2 construct: 100 nM EE-P-Rex1 DHPH domains (PREX-in1, compounds 2–10 and 30–128); made in house; host or cells: Sf9 cells (baculovirus)
T2 sequence (Q8TCU6 49-392 limits assumed): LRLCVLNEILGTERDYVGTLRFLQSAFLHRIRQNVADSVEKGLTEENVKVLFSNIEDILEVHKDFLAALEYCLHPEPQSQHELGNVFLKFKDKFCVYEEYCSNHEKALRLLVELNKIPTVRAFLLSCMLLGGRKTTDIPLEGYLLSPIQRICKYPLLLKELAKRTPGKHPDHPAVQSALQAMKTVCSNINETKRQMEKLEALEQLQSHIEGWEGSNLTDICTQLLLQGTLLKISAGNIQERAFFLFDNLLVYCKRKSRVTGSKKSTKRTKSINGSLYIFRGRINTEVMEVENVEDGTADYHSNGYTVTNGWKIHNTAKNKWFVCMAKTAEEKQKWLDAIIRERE
Method: The mant-GTP GEF activity assay measures the binding of fluorescent 2’/3’-O-(N-Methyl-anthraniloyl)-guanosine-5’-triphosphate (mant)-GTP to Rac, making use of the spectroscopic differences between bound and free mant-GTP. P-Rex1 DHPH domain protein was diluted to 375 nM in exchange buffer (20 mM Tris, pH 7.5 RT, 50 mM NaCl, 200 mM KCl, 4 mM MgCl2, 50 μg/ml fatty-acid-free BSA). The inhibitors PREX-in1 or EHop-016 were diluted to various concentrations in exchange buffer containing 15% DMSO. 4.4 µl P-Rex1 DHPH domain protein were incubated with 1.1 µl PREX-in1 or EHop-016 for 30 min at 30°C, or were mock treated with 1.1 µl vehicle (15% DMSO). 5 μl of the P-Rex1 DHPH / inhibitor mix was then added to 10 µl of a 1.5x reaction mix containing 225 nM bacteria-derived EE-Rac1, 7.5 µM mant-GTP and 15 µM GTP in exchange buffer in a 96-well plate. Final assay concentrations were 150 nM EE-Rac1, 100 nM P-Rex1 DHPH domain, 5 μM mant-GTP, 10 µM GTP, […] fatty-acid-free BSA, 1% DMSO, and the indicated concentrations of inhibitor. Mant-GTP fluorescence was measured in real time in a PHERAstar 384-well fluorescence plate reader at 25°C for 40 min using 360 nm excitation and 440 nm emission.

[1] = tested on: Rac-dependent cell responses; parameters: method as in PMID 22383527; settings: lamellipodia formation and migration; cited from earlier work

## CCN(CC)CCCC(C)Nc1nc(C)cc(Nc2ccc3nc(C)cc(N)c3c2)n1 (stereo not shown) [NSC23766, reference compound]
full-length P-Rex1
  effect on PIP3-stimulated Rac-GEF activity of full-length P-Rex1: did not appear to inhibit
Tiam1
  IC50: ~50 µM
HEK-293 cells
  cell death (sub-G1 phase): caused cell death to a similar extent
TrioN
  IC50: ~50 µM

## O=C1NN(c2ccccc2)C(=O)/C1=C/C=C/c1ccccc1Cl [CPYPP]
DOCK2
  IC50: 22.8 µM

## CCn1c2ccccc2c2cc(Nc3ccnc(NCCCN4CCOCC4)n3)ccc21 [EHop-016, reference compound]
P-Rex1 DHPH domain
  effect on P-Rex1 DHPH-dependent mant-GTP loading of Rac1: did not affect
[1]
  IC50 for blocking Rac-dependent cell responses: low micromolar
